# Earlier results in patent US7317127B2, “Process for the optical resolution and recycling of tomoxetine” (Teva Pharmaceutical Fine Chemicals S.r.l, priority 2004, dated 2008).
# Conditions: as disclosed in U.S. Pat. No. 4,018,895, EP 0 052 492, EP 0 721 777
smiles,measurement,setting,value
"CNCC[C@@H](Oc1ccccc1C)c1ccccc1 [Atomoxetine, (R)(−)-N-methyl-3-(2-methylphenoxy)-3-phenylpropylamine]",effectiveness relative to the (+)-enantiomer,versus (S)-(+)-tomoxetine,about nine times more effective than the (+)-enantiomer
same,effectiveness relative to the racemic mixture,versus racemic tomoxetine,about twice as effective as the racemic mixture
